In US10222381B2, “Water-soluble peptide fluorescence material” (NATIONAL CHIAO TUNG UNIVERSITY, priority 2015, dated 2019):
Non-standard residues stand in square brackets, D forms with d. Residues, ends and D or L forms follow the SMILES beside them. ξ: configuration not given here. *: point of attachment. Acetyl(1,8-naphthalimido) = O=C1c2cccc3cccc(c23)C(=O)N1CC(=O)*; X2 = O=C1c2cccc3c(N4CCCCC4)ccc(c23)C(=O)N1CC(=O)*; ξY = NC(Cc1ccc(O)cc1)C(=O)O; ξE = NC(CCC(=O)O)C(=O)O

Key:
[1] = Fluorescence in co-solvents of water and dimethyl sulfoxide (aggregation-induced emission); assay type: physicochemical; details: for fluorescence intensity with increase of the volume ratio of water: aggregation-induced emission; for color of observed fluorescence / emission wavelength: water/dimethyl sulfoxide co-solvent
Description: Continuing in FIG. 4, which illustrates a fluorescence intensity and an emission wavelength of the water-soluble peptide fluorescence material of formula (III-1) in co-solvents having different proportions of water and dimethyl sulfoxide. In Experimental Example 401, 402, 403, 404, 405, 406, 407, 408, 409, 410 and 411, water respectively has 0, 10, 20, 30, 40, 50, 60, 70, 80, 90 and 100% of a total volume of the co-solvent. […] As such, no significant fluorescence marker is shown, so it is difficult to observe apparent fluorescence visually. […] Given the above, the fluorescence intensity of the water-soluble peptide fluorescence material of formula (III-1) is increased corresponding to the increase of the volume ratio of water, which is also referred as aggregation-induced emission (AIE). In addition, the water-soluble peptide fluorescence material of formula (III-1) has the emission wavelength of about 400 nm, so the observed fluorescence has a color of blue violet.
Continuing in FIG. 9, which illustrates a fluorescence intensity and an emission wavelength of the water-soluble peptide fluorescence material of formula (III-23) in co-solvents having different proportions of water and dimethyl sulfoxide. In Experimental Examples 901, 902, 903, 904, 905, 906, 907, 908, 909 and 910, water respectively has 0, 10, 20, 30, 40, 50, 60, 70, 80 and 90% of a total volume of the co-solvent. […] Given the above, the fluorescence intensity of the water-soluble peptide fluorescence material of formula (III-23) is increased corresponding to the increase of the volume ratio of water and has a phenomenon of aggregation-induced emission in water. In addition, the water-soluble peptide fluorescence material of formula (III-23) has the emission wavelength of about 550 nm, so the observed fluorescence has a color of green.
FIG. 12 illustrates a fluorescence intensity and an emission wavelength of the water-soluble peptide fluorescence material of formula (III-28) in co-solvents having different proportions of water and dimethyl sulfoxide. In Experimental Example 1201, 1202, 1203, 1204, 1205, 1206, 1207, 1208, 1209, 1210 and 1211, water respectively has 0, 10, 20, 30, 40, 50, 60, 70, 80, 90 and 99% of a total volume of the co-solvent. […] As such, no significant fluorescence marker is shown, so it is difficult to observe apparent fluorescence visually. […] Given the above, the fluorescence intensity of the water-soluble peptide fluorescence material of formula (III-28) is increased corresponding to the increase of the volume ratio of water and has a phenomenon of aggregation-induced emission in water. In addition, the water-soluble peptide fluorescence material of formula (III-28) has the emission wavelength of about 400 nm, so the observed fluorescence has a color of violet. FIG. 13 depicts a ratio of the fluorescence intensity between Experimental Examples 1202 to 1211 and Experimental Example 1201, at the emission wavelength of 400 nm.
FIG. 15 illustrates a fluorescence intensity and an emission wavelength of the water-soluble peptide fluorescence material of formula (III-30) in co-solvents having different proportions of water and dimethyl sulfoxide. In Experimental Example 1501, 1502, 1503, 1504, 1505, 1506, 1507, 1508, 1509, 1510 and 1511, water respectively has 0, 10, 20, 30, 40, 50, 60, 70, 80, 90 and 100% of a total volume of the co-solvent. […] As such, no significant fluorescence marker is shown, so it is difficult to observe apparent fluorescence visually. […] Accordingly, the fluorescence intensity of the water-soluble peptide fluorescence material of formula (III-30) is increased corresponding to the increase of the volume ratio of water and has a phenomenon of aggregation-induced emission in water. In addition, the water-soluble peptide fluorescence material of formula (III-30) has the emission wavelength of about 400 to 425 nm, so the observed fluorescence has a color of blue violet. […]

[2] = Fluorescence intensity and emission wavelength at different pH values; assay type: physicochemical; details: for color of fluorescence / emission peak: pH 5; for pH value of the highest fluorescence intensity: pH 10 to 3 tested; for fluorescence intensity: pH 10 to 6
Description: In Experimental Examples 210, 220, 230, 240, 250, 260, 270 and 280, the above water-soluble peptide fluorescence material is respectively placed in environments having a pH value of 10, 9, 8, 7, 6, 5, 4 and 3 for testing. In Experimental Examples 210 to 230, the water-soluble peptide fluorescence material is respectively placed in environments having the pH value of 10, 9 and 8.
Continuing in FIG. 5, which illustrates a fluorescence intensity and an emission wavelength of the water-soluble peptide fluorescence material of formula (III-10) at different pH values. In Experimental Examples 510, 520, 530, 540, 550, 560, 570 and 580, the water-soluble peptide fluorescence material of formula (III-10) is respectively placed in environments having a pH value of 10, 9, 8, 7, 6, 5, 4 and 3 for testing. In Experimental Examples 510 to 560, the water-soluble peptide fluorescence material is placed in environments having the pH value of 10 to 5, and two emission peaks are shown in FIG. 5. […] Then, the pH value is further decrease to 4 (Experimental Example 570) and 3 (Experimental Example 580), and only the emission peak at about 400 nm is remained, so the observed fluorescence has a color of purple in Experimental Examples 570 and 580. Therefore, the water-soluble peptide fluorescence material of formula (III-10) is able to detect and mark locations of acidic cells by change of the color.
Continuing in FIG. 7, which illustrates a fluorescence intensity and an emission wavelength of the water-soluble peptide fluorescence material of formula (III-21) at different pH values. In Experimental Examples 710, 720, 730, 740, 750, 760, 770 and 780, the water-soluble peptide fluorescence material of formula (III-21) is respectively placed in environments having a pH value of 10, 9, 8, 7, 6, 5, 4 and 3 for testing. In Experimental Examples 710 to 750, the water-soluble peptide fluorescence material is placed in environments having the pH value of 10 to 6. […] However, the fluorescence intensity of Experimental Examples 780 is decreased when the pH value is decreased from 4 to 3.
Continuing in FIG. 8, which illustrates a fluorescence intensity and an emission wavelength of the water-soluble peptide fluorescence material of formula (III-22) at different pH values. In Experimental Examples 810, 820, 830, 840, 850, 860, 870 and 880, the water-soluble peptide fluorescence material of formula (III-22) is respectively placed in environments having a pH value of 10, 9, 8, 7, 6, 5, 4 and 3 for testing. In Experimental Examples 810 to 850, the water-soluble peptide fluorescence material is respectively placed in environments having the pH value of 10 to 6. […] In addition, the fluorescence intensity of Experimental Example 860 (pH=5) is 90 times of the fluorescence intensity of Experimental Example 810 […], which represents that the water-soluble peptide fluorescence material has obvious light-emitting interval and easily to identify and detect positions of the acidic cells.
FIG. 10 illustrates a fluorescence intensity and an emission wavelength of the water-soluble peptide fluorescence material of formula (III-23) at different pH values. In Experimental Examples 1010, 1020, 1030, 1040, 1050, 1060, 1070 and 1080, the water-soluble peptide fluorescence material of formula (III-23) is respectively placed in environments having a pH value of 10, 9, 8, 7, 6, 5, 4 and 3 for testing. In Experimental Examples 1010 to 1050, the water-soluble peptide fluorescence material is respectively placed in environments having the pH value of 10 to 6. […] The water-soluble peptide fluorescence material not only provides obvious marker, but also achieves the same effect of the fluorescence at a low concentration, and thereby reduces the costs.
FIG. 11 illustrates a fluorescence intensity and an emission wavelength of the water-soluble peptide fluorescence material of formula (III-27) at different pH values. […]

Structure (SMILES)	fluorescence intensity with increase of the volume ratio of water [1]	fluorescence intensity ([1]; water 90%) [fluorescent units]	color of observed fluorescence [1]	emission wavelength [1]	color of fluorescence [2]	emission peak [2]	fluorescence intensity [2]	change of fluorescence intensity ([2]; pH decreased to 5)	change of fluorescence intensity ([2]; pH decreased to 4 and 3)	further results
O=C(CN1C(=O)c2cccc3cccc(c23)C1=O)NC(Cc1ccccc1)C(=O)O (centres unmarked) [III-1]	increased	100	blue violet	about 400 nm	–	–	–	–	–	fluorescence intensity ([1]; water 0 to 70% of co-solvent volume): low fluorescence intensity; fluorescence intensity ([1]; water 80%): 50 fluorescent units; fluorescence intensity ([1]; water 100%): about 650 fluorescent units
O=C(CN1C(=O)c2cccc3cccc(c23)C1=O)NCC(=O)NC(Cc1ccccc1)C(=O)O (centres unmarked) [III-10]	–	–	–	–	–	–	–	–	–	color of observed fluorescence ([2]; pH 4 and 3): purple; emission peak (only one remained) ([2]; pH 4 and 3): about 400 nm; color of observed fluorescence ([2]; pH 10 to 5): mixed light of green light and purple light; emission peak (first) ([2]; pH 10 to 5): about 400 nm; emission peak (other) ([2]; pH 10 to 5): about 500 nm
O=C(O)CCC(NC(=O)C(CCC(=O)O)NC(=O)C(CCC(=O)O)NC(=O)[C@H](Cc1ccccc1)NC(=O)CN1C(=O)c2cccc3c(N4CCCCC4)ccc(c23)C1=O)C(=O)O (some centres unmarked) [III-27] (X2-F[ξE][ξE][ξE]-OH)	–	–	–	–	green	about 525 nm	low fluorescence intensities	significantly increased	significantly increased	–
C[C@H](NC(=O)[C@H](CCC(=O)O)NC(=O)CNC(=O)[C@H](CC(=O)O)NC(=O)[C@H](Cc1ccccc1)NC(=O)CN1C(=O)c2cccc3cccc(c23)C1=O)C(=O)O [III-28] ({Acetyl(1,8-naphthalimido)}-FDGEA-OH)	increased	150	violet	about 400 nm	purple	about 400 nm	low fluorescence intensities	significantly increased	significantly increased	ratio of fluorescence intensity Experimental Example 1211 (99% water) to 1201 (0% water) ([1]; emission wavelength of 400 nm): 225 times; fluorescence intensity ([1]; water 0 to 80%): low fluorescence intensity; fluorescence intensity ([1]; water 99%): about 110 fluorescent units
O=C(CNC(=O)CNC(=O)CN1C(=O)c2cccc3cccc(c23)C1=O)NCC(=O)NCC(=O)NCC(=O)NC(Cc1ccc(O)cc1)C(=O)O (centres unmarked) [III-30] ({Acetyl(1,8-naphthalimido)}-GGGGG[ξY]-OH)	increased	200	blue violet	–	–	–	–	–	–	ratio of fluorescence intensity Experimental Example 1511 to 1501 (0% water) ([1]; emission wavelength of 410 nm): 100 times; fluorescence intensity ([1]; water 0 to 80%): lower than 100 fluorescent units; fluorescence intensity ([1]; water 99%): about 700 fluorescent units

Second part, led by results:

fluorescence intensity with increase of the volume ratio of water [1]	fluorescence intensity ([1]; water 90%) [fluorescent units]	color of observed fluorescence [1]	emission wavelength [1]	color of fluorescence [2]	emission peak [2]	fluorescence intensity [2]	change of fluorescence intensity ([2]; pH decreased to 5)	change of fluorescence intensity ([2]; pH decreased to 4 and 3)	Structure (SMILES)	further results
–	–	–	–	green	about 550 nm	low fluorescence intensities	significantly increased	–	O=C(O)CCC(NC(=O)[C@H](Cc1ccccc1)NC(=O)CN1C(=O)c2cccc3c(N4CCCCC4)ccc(c23)C1=O)C(=O)O (some centres unmarked) [III-21]	pH value of the highest fluorescence intensity [2]: 4; change of fluorescence intensity ([2]; pH decreased from 4 to 3): decreased; change of fluorescence intensity ([2]; pH decreased from 5 to 4): further increased
–	–	–	–	yellow	about 575 nm	low fluorescence intensities	significantly increased	–	O=C(O)C[C@H](NC(=O)[C@H](CC(=O)O)NC(=O)[C@H](Cc1ccccc1)NC(=O)CN1C(=O)c2cccc3c(N4CCCCC4)ccc(c23)C1=O)C(=O)O [III-22]	ratio of fluorescence intensity Experimental Example 860 (pH=5) to Experimental Example 810 (pH=1) [2]: 90 times; pH value of the highest fluorescence intensity [2]: 5; change of fluorescence intensity ([2]; pH decreased from 4 to 3): slightly increased; change of fluorescence intensity ([2]; pH decreased from 5 to 4): decreased
increased	–	green	about 550 nm	green	about 525 nm	low fluorescence intensities	significantly increased	slightly increased	O=C(O)C[C@H](NC(=O)[C@H](CC(=O)O)NC(=O)[C@H](Cc1ccccc1)NC(=O)CN1C(=O)c2cccc3c(N4CCCCC4)ccc(c23)C1=O)C(=O)O [III-23]	fluorescence intensity ([1]; water 90% (Experimental Example 910), water 0 to 90% tested): highest fluorescence intensity
